Read-outs that look alike come from different tables or passages of the source.
Key:
[1] = system: blood platelet aggregation; assay: Anti-aggregation action in rats (graded / in words); type: in vivo; parameters: key to Anti-aggregation action: -: zero activity; +: significant activity; ++: intense activity; +++: very intense activity
Clinical tests in man = type: in vivo
Protocol: The clinical tests have made it possible to confirm the pharmacological tests. Thus, in man, CRL 40,293 (Example 23) in the form of gelatine-coated pills containing 400 mg of active ingredient administered at the rate of 2 such pills twice daily has given good results in the treatment of circulatory complaints and especially of lipid disturbances.
CRL 40,386 (Example 8) has been used in man for the treatment of hyperlipidaemia in the form of gelatine-coated pills each containing 300 mg of active ingredient at the rate of 2 to 6 such pills per day.

[2] = system: platelets (aggregation induced by ADP); assay: Anti-aggregation action, platelet aggregation induced by ADP; type: in vivo, male Wistar rats; settings: oral 100 mg/kg, 4 days
Protocol: (b) by ADP: the inhibition of aggregation (that is to say the % transmission).
(§1) In Table IV which follows have been shown the results relating to the anti-aggregation action of some products on the blood of male Wistar rats, the aggregating agents used being collagen/acetic acid diluted 1/10, and ADP at 1 μM.

[3] = Hypo-lipidaemic and hypo-cholesterolaemic action in rats on hyper-lipid diet; type: in vivo, Wistar rats; settings: Rattus norvegicus, 0.1 g/kg in rats
Description: A. a batch of rats receiving a normal diet (percentage inhibition=100%);
B. a batch of rats receiving a hyper-lipid diet (percentage inhibition=0%);
C. a batch of rats receiving the hyper-lipid diet B with a daily dose, of 0.1 g/kg, of a reference product having a lipidaemia-normalising action, namely Lipavlon [ethyl 2-(p-chlorophenoxy)-2-methyl-propionate];
D. a batch of rats receiving the hyper-lipid diet B with a daily dose, of 0.1 g/kg, of another product having a lipidaemia-normalising action, namely LL 1558 [1,10-bis-(2-hydroxyethyl-thio)-decane]; and
E. a batch of rats receiving the hyper-lipid diet B with a daily dose of 10 mg/kg and 25 mg/kg, where necessary, higher doses.
In Table III which follows have been shown the results relating to CRL 40,201 (the product of Example 17) and CRL 40,202 (the product of Example 18) in respect of the hypo-lipidaemic action and hypo-cholesterolaemic action.

[4] = system: platelets (aggregation induced by collagen); assay: Anti-aggregation action, platelet aggregation induced by collagen; type: in vivo, male Wistar rats; settings: 4 days
Protocol: (a) by collagen: the inhibition of aggregation (which corresponds to the % transmission), the latency period and the speed; and
as §1

[5] = Reduction of lipids and cholesterol in rats treated orally; type: in vivo; settings: for inhibition in vivo at 10 mg/kg / inhibition in vivo at 20 mg/kg: Rattus norvegicus, 72 h, 3 days; for inhibition in vivo at 10 mg/kg: oral 10 mg/kg; for inhibition in vivo at 20 mg/kg: oral 20 mg/kg
stomach and duodenum = assay: Gastric tolerance in fasting rats; type: in vivo
Description: It has furthermore been observed that CRL 40,293 is a well-tolerated substance.

[6] = type: in vivo; settings: oral, male rats
Protocol: (§2) In female mice, the LD-50 on oral administration is 2,050 mg/kg. In male rats, the LD-0, on oral administration, is greater than 600 mg/kg.

in vivo = settings: mouse, oral, female mice
Protocol: as §2

[7] = system: cardio-vascular parameters; assay: Cardio-vascular activity in anaesthetised dogs; type: in vivo; settings: intraduodenal 100 then 200 mg/kg
Protocol: Three anaesthetised dogs are used for this study. The product is administered intraduodenally as a gum suspension.
Two dogs with the thorax closed and respiring spontaneously are given CRL 40,293 at a dose of 100 mg/kg followed by 200 mg/kg, this second dose being administered 1 hour 30 minutes to 2 hours after the first.
One dog with the thorax opened is given 100 mg/kg, followed after 1 hour by 200 mg/kg, of CRL 40,293.
In these animals the effects of injections of noradrenalin, acetylcholine, tyramine, DMPP, histamine and serotonine were unchanged and the same is true of the effects of occlusion of the carotids and of stimulation of the central end and peripheral end of the vagus.

[8] = Hypo-lipidaemic and hypo-cholesterolaemic action of other products (Table V); type: in vivo, rats; settings: for change in vivo at 50 mg/kg: Rattus norvegicus, 72 h, oral 50 mg/kg for 3 days
Description: The results of the anti-aggregation test and of the hypo-[…] action and hypo-cholesterolaemic action tests of other products of the invention have been […] Table V which follows, the code used being the following (for each dose shown): […]

[9] = Reduction of lipids and cholesterol in rats treated orally; type: in vivo; settings: Rattus norvegicus
Protocol: Some of the other results of the pharmacological tests which were carried out on rats are summarised below.
Rats given a normal diet are treated orally at a daily dose of 50 mg/kg for 3 and 5 days. A reduction of about 20% in the concentration of cholesterol and lipids in the plasma is observed.

[10] = oral 100 mg/kg, collagen/acetic acid diluted 1/10
[11] = read-out: reduction in the cholesterol
[12] = read-out: reduction in the lipids

In the case of `O=C(O)CSc1ccc(Oc2ccc(Cl)cc2)cc1` [CRL 40,271, 4-(4-Chlorophenoxy)-phenylthioacetic acid], the “anti-aggregation activity (in words)” value ([1]; results of Table IV) is reported as “the most interesting amongst them”, the tolerance in man (Clinical tests in man; gelatine-coated pill of 200 to 400 mg, 1 to 2 per day) is reported as “well tolerated” and the “treatment of circulatory complaints due to hyperlipidaemias” value (Clinical tests in man; man, gelatine-coated pill of 200 to 400 mg, 1 to 2 per day) is reported as “efficient”. The “change in aggregation, ADP transmission” value ([2]; ADP at 1 μM) was -28%, the inhibition at 100 mg/kg ([3]; read-out: cholesterol inhibition) was 54% and the inhibition at 100 mg/kg ([3]; read-out: total lipids inhibition) was 35%. For the same molecule, the “change in aggregation, collagen, latency period” value [4, 10] was “+15%”, the “change in aggregation, collagen, speed” value [4, 10] was -60% and the “change in aggregation, collagen, transmission” value [4, 10] was -25%.
With `OCCOc1ccc(Oc2ccc(Cl)cc2)cc1` [CRL 40,293, 2-[4-(4-Chlorophenoxy)-phenoxy]ethanol] the Anti-aggregation action ([1]; 100 mg/kg per day for 3 days) was “+++”, the Anti-aggregation action ([1]; oral 50 mg/kg for 3 days) was “++” and the “treatment of circulatory complaints and especially of lipid disturbances” value (Clinical tests in man; man, gelatine-coated pills of 400 mg, 2 pills twice daily) was “good results”. For the same molecule, the decrease in cholesterol ([5]; daily oral 10 mg/kg, 3-4 days) was 20%, the “decrease in total lipids” value ([5]; daily oral 10 mg/kg, 3-4 days) was 20% and the “ulceration or inflammation of the stomach and of the duodenum” value (stomach and duodenum; fasting rats, 1 g/kg through a probang, 8 hours after administration) was “no ulceration or inflammation of the stomach and of the duodenum is observed”. The “tolerance (in words)” value (stomach and duodenum; rat, in vivo) was “well-tolerated”, the LD-0 [6] was “greater than 600 mg/kg” and the LD50 (in vivo) was 2050 mg/kg. For the same molecule, the “change of parameters: arterial pressure, pulse rate, left intra-ventricular pressure, dp/dt, vertebral and femoral arterial flow rates, respiration” value ([7]; closed thorax, 2 hours' observation) was “None of the parameters measured changed”, the “effects of noradrenalin, acetylcholine, tyramine, DMPP, histamine and serotonine injections, carotid occlusion and vagus stimulation” value ([7]; dogs) was “unchanged” and the “change of parameters: arterial pressure, pulse rate, left intraventricular pressure, dp/dt, aorta flow rate, work of left ventricle, coronary arterial flow rate” value ([7]; opened thorax, 2 hours' observation) was “None of the parameters measured changed”. For the same molecule, the change in vivo at 50 mg/kg ([8]; read-out: Cholesterol (change)) was -40%, the change in vivo at 50 mg/kg ([8]; read-out: Total lipids (change)) was -40% and the “hypo-lipidaemic and hypocholesterolaemic activity (in words)” value ([8]; oral 50 mg/kg) was “good hypo-lipidaemic and hypocholesterolaemic activity”.
`O=C(CSc1ccc(Sc2ccc(Cl)cc2)cc1)OCCSCCCCCCCCCCSCCOC(=O)CSc1ccc(Sc2ccc(Cl)cc2)cc1` [CRL 40,394, 3,14-Dithia-1,16-hexadecyl di-[p-(p-chlorophenylthio)-phenylthio-acetate]] showed an inhibition in vivo at 50 mg/kg ([9]; po, 120 h, 50 mg/kg, 5 days, read-out: reduction in the cholesterol) of 16% and an inhibition in vivo at 50 mg/kg ([9]; po, 120 h, 50 mg/kg, 5 days, read-out: reduction in the lipids) of 33%.
`CC(COC(=O)C(C)Oc1ccc(Sc2ccc(Cl)cc2)cc1)SCCCCCCCCCCSC(C)COC(=O)C(C)Oc1ccc(Sc2ccc(Cl)cc2)cc1` (racemic) [CRL 40,391, (±)-2,15-Dimethyl-3,14-dithia-1,16-hexadecyl di-(±)-{2-[p-(p-chlorophenylthio)-phenoxy]-propionate}] gave an inhibition in vivo at 10 mg/kg [5, 11] of 32%, an inhibition in vivo at 10 mg/kg [5, 12] of 17% and an inhibition in vivo at 20 mg/kg [5, 11] of 43%. The inhibition in vivo at 20 mg/kg [5, 12] was 21%, the inhibition at 100 mg/kg ([2]; Rattus norvegicus, Platelet, 96 h, read-out: inhibition of transmission (ADP test)) was 19% and the “latency time (collagen test)” value ([4]; 100 mg/kg, unit not given) was “+40”. The “speed (collagen test)” value ([4]; 100 mg/kg, unit not given) was -32, the inhibition in vivo at 50 mg/kg ([9]; 72 h, oral 50 mg/kg, 3 days, read-out: reduction in the cholesterol) was 42% and the inhibition in vivo at 50 mg/kg ([9]; 72 h, oral 50 mg/kg, 3 days, read-out: reduction in the lipids) was 29%.
